From ChEMBL document CHEMBL5608172, “Structural modification strategies of triazoles in anticancer drug development” (Eur J Med Chem, 2024)

Tests used:
Detroit 562 = test: Antiproliferative activity against human Detroit 562 cells; type: functional, cell-based
HCT-116 [1] = test: Cytotoxicity against human HCT-116 cells assessed as reduction in cell growth incubated for 24 hrs by MTT assay; type: functional, cell-based; conditions: HCT-116, 24 h
HeLa [2] = test: Cytotoxicity against human HeLa cells assessed as reduction in cell viability after 72 hrs by MTT assay; type: functional, cell-based
HL-60 = test: Antiproliferative activity against human HL-60 cells; type: functional, cell-based
U-937 = test: Antiproliferative activity against human U-937 cells; type: functional, cell-based
PC-3 [3] = test: Cytotoxicity against human PC-3 cells assessed as reduction in cell growth incubated for 3 days by MTT assay; type: functional, cell-based; conditions: PC-3, 72 h
HCT-116 [4] = test: Cytotoxicity against human HCT-116 cells assessed as reduction in cell viability measured after 48 hrs by MTT assay; type: functional, cell-based; conditions: HCT-116, 48 h
A549 = test: Anticancer activity against human A549 cells assessed as reduction in cell viability by MTT assay; type: functional, cell-based
HeLa [5] = test: Anticancer activity against human HeLa cells assessed as reduction in cell viability by MTT assay; type: functional, cell-based
T47D = test: Cytotoxicity against human T47D cells assessed as reduction in cell growth incubated for 24 hrs by MTT assay; type: functional, cell-based
SNB-19 = test: Cytotoxicity against human SNB-19 cells assessed as reduction in cell growth incubated for 24 hrs by MTT assay; type: functional, cell-based; conditions: SNB-19, 24 h
MCF7 [6] = test: Cytotoxicity against human MCF7 cells assessed as reduction in cell growth incubated for 24 hrs by MTT assay; type: functional, cell-based; conditions: MCF7, 24 h
AGS = test: Anticancer activity against human AGS cells; type: functional, cell-based
MCF7 [7] = test: Cytotoxicity against human MCF7 cells assessed as cell growth inhibition incubated for 72 hrs by SRB assay; type: functional, cell-based; conditions: MCF7, 72 h
CCRF-CEM = test: Antiproliferative activity against human CCRF-CEM cells; type: functional, cell-based
SW-620 = test: Antiproliferative activity against human SW620 cells assessed as inhibition of cell growth measured after 72 hrs by MTT assay; type: functional, cell-based; conditions: SW-620, 72 h
MCF7 [8] = test: Cytotoxicity against human MCF7 cells assessed as reduction in cell growth incubated for 72 hrs by MTT assay; type: functional, cell-based; conditions: MCF7, 72 h
[9] = Cytotoxicity against hTERT Lung Fibroblast cells assessed as reduction in cell growth incubated for 72 hrs by MTT assay; type: toxicity, cell-based; conditions: human
MCF7 [10] = test: Cytotoxicity against human MCF7 cells assessed as reduction in cell viability incubated for 48 hrs by MTT assay; type: functional, cell-based; conditions: MCF7, 48 h
HCT-116 [11] = test: Cytotoxicity against human HCT-116 cells assessed as reduction in cell viability incubated for 24 hrs by MTT assay; type: functional, cell-based; conditions: HCT-116, 24 h
MDA-MB-231 = test: Antiproliferative activity against human MDA-MB-231 cells assessed as reduction in cell viability; type: functional, cell-based
MCF7 [12] = test: Antiproliferative activity against human MCF7 cells assessed as reduction in cell viability; type: functional, cell-based
HCT-116 [13] = test: Antiproliferative activity against human HCT-116 cells assessed as inhibition of cell growth measured after 72 hrs by MTT assay; type: functional, cell-based; conditions: HCT-116, 72 h
HepG2 = test: Anticancer activity against human HepG2 cells; type: functional, cell-based
K562 = test: Antiproliferative activity against human K562 cells assessed as reduction in cell viability incubated for 72 hrs by MTT assay; type: functional, cell-based; conditions: K562, 72 h
PC-3 [14] = test: Antiproliferative activity against human PC-3 cells assessed as reduction in cell viability incubated for 72 hrs by MTT assay; type: functional, cell-based; conditions: PC-3, 72 h
MCF7 [15] = test: Antiproliferative activity against human MCF7 cells assessed as reduction in cell growth incubated for 24 hrs by MTT assay; type: functional, cell-based; conditions: MCF7, 24 h
HeLa [16] = test: Cytotoxicity against human HeLa cells by MTT assay; type: functional, cell-based
Huh-7 = test: Cytotoxicity against human Huh-7 cells assessed as cell growth inhibition incubated for 72 hrs by SRB assay; type: functional, cell-based; conditions: Huh-7, 72 h

## COc1cc(C(=O)/C=C/c2ccccc2)cc(OC)c1OC
Detroit 562
  IC50: 3070 nM

## C=C(C)[C@@H]1CC[C@]2(COC(C)=O)CC[C@]3(C)[C@H](CC[C@@H]4[C@@]5(C)Cc6nn(C(C)=O)nc6C(C)(C)[C@@H]5CC[C@]43C)[C@@H]12
HCT-116 [1]
  IC50: 22500 nM

## C=C(C)[C@@H]1CC[C@]2(CO)CC[C@]3(C)[C@H](CC[C@@H]4[C@@]5(C)Cc6nn(C(C)=O)nc6C(C)(C)[C@@H]5CC[C@]43C)[C@@H]12
HCT-116 [1]
  IC50: 5670 nM

## CC(=O)O[C@@H]1[C@H](OC(C)=O)[C@H](OC(C)=O)CO[C@H]1n1cc(COC(=O)[C@]2(C)CCC[C@@]3(C)[C@@H]4CC[C@@]5(C)C[C@]4(CC[C@@H]32)CC5=O)nn1
HeLa [2]
  IC50: 1700 nM

## CNc1nc2ccccc2n2c(CCc3ccccc3)cnc12
HL-60
  IC50: 2070 nM
U-937
  IC50: 820 nM

## Cc1nn(-c2ccc(S(N)(=O)=O)cc2)c(N)c1-c1nnc(SC/C(=N\O)c2ccccc2)n1-c1ccccc1
PC-3 [3]
  IC50: 330 nM

## CC(=O)O[C@@H]1O[C@H](Cn2cc(COc3cccc4cccnc34)nn2)[C@H](OC(C)=O)[C@H](OC(C)=O)[C@H]1OC(C)=O
HCT-116 [4]
  IC50: 10800 nM

## O=Cc1cc(Cc2ccc3oc(C(=O)c4ccc(Cl)cc4)cc3c2)ccc1OCc1cn(-c2ccccc2C(F)(F)F)nn1
A549
  IC50: 40.4 nM
HeLa [5]
  IC50: 29.1 nM

## C=C(C)[C@@H]1CC[C@]2(COC(=O)c3cn(Cc4ccc(F)cc4)nn3)CC[C@]3(C)[C@H](CC[C@@H]4[C@@]5(C)CC[C@H](OC(=O)c6cnnn6Cc6ccc(F)cc6)C(C)(C)[C@@H]5CC[C@]43C)[C@@H]12
T47D
  IC50: 50 nM
SNB-19
  IC50: 80 nM
MCF7 [6]
  IC50: 90 nM

## O=c1cc(-c2ccccc2)c2ccc(OCc3nncn3-c3ccc(Cl)cc3)cc2o1
AGS
  IC50: 2630 nM

## O=C(O)c1ccc(C(=O)NCn2cc(CSc3nc(-c4ccccc4)c(-c4ccccc4)n3-c3ccccc3)nn2)cc1
MCF7 [7]
  IC50: 380 nM

## COc1cc(/C=C/C(=O)/C(Cc2cnnn2Cc2ccc(F)cc2)=C(O)/C=C/c2ccc(O)c(OC)c2)ccc1O
CCRF-CEM
  IC50: 3310 nM

## c1ccc(-n2cc(-c3nc4ccc(C5=NCCN5)cc4s3)nn2)cc1
SW-620
  IC50: 250 nM

## CC(=O)O[C@H]1CC[C@]2(C)[C@H]3CC=C4[C@@H]5[C@@H](C)[C@H](C)CC[C@]5(C(=O)OCc5cn(Cc6nonc6C)nn5)CC[C@@]4(C)[C@]3(C)CC[C@H]2C1(C)C
MCF7 [8]
  IC50: 1550 nM
[9]
  IC50 at 72 h: 10400 nM

## Cc1nccc2c1[nH]c1cc(OCc3cn(-c4cc(=O)oc5ccccc45)nn3)ccc12
MCF7 [10]
  IC50: 6900 nM

## O=c1oc2ccccc2c2c1cnn2Cc1cn(-c2ccc(Cl)cc2)nn1
HCT-116 [11]
  IC50: 20200 nM

## CC(C)[C@@H]1CC[C@@H](C)C[C@@H]1On1cc(CN2C(=O)C(=O)c3ccccc32)nn1
MDA-MB-231
  IC50: 1790 nM
MCF7 [12]
  IC50: 1340 nM

## CCc1nnc2c(-c3ccccc3)cc3c(Br)c(OC)c(OC)cc3n12
HCT-116 [13]
  IC50: 500 nM

## Nn1c(Sc2c(O)c3ccccc3oc2=O)nnc1-c1ccc(Cl)cc1
HepG2
  IC50: 1780 nM

## CC(C)(C)c1ccc(-c2cn(Cc3cc4c(o3)-c3ccccc3C(=O)C4=O)nn2)cc1
K562
  IC50: 900 nM
PC-3 [14]
  IC50: 1400 nM

## CC(=O)O[C@@H]1O[C@H](Cn2cc(COc3cccc4cccnc34)nn2)[C@@H](OC(C)=O)[C@H](OC(C)=O)[C@H]1OC(C)=O
HCT-116 [4]
  IC50: 22300 nM

## COC(=O)c1ccccc1-n1ncc(CSc2nnc(-c3ccccc3)o2)n1
MCF7 [15]
  IC50: 1260 nM

## Cc1ccc(Cn2cc(Cn3c(Cl)cc(=O)n(C)c3=O)nn2)cc1
HeLa [16]
  IC50: 4500 nM
Huh-7
  IC50: 7700 nM
